According to patent publication US9334289B2, “Cephem compound having catechol or pseudo-catechol structure” (SHIONOGI & CO., LTD., priority 2011, dated 2016):
One block for each compound: values may come before it.

How the values were obtained:
Assay type in all cases: cell-based
[1] = tested on: P. aeruginosa SR24; experiment: MIC, CLSI broth microdilution, Test Example 1; conditions: Ceftazidime resistance strain, cation-adjusted Mueller Hinton broth containing human apo-transferrin, 5×10^5 cfu/mL; for MIC: Pseudomonas aeruginosa, SR24, read-out: Minimum Inhibitory Concentration (MIC) P. aeruginosa SR24
[2] = tested on: P. aeruginosa SR01332; experiment: MIC, CLSI broth microdilution, Test Example 2; conditions: Pseudomonas aeruginosa, SR01332; VIM-11 MBL producing strain (carbapenem resistance strain); cation-adjusted Iso-Sensitest broth containing human Apo-transferrin; 5×10^5 cfu/mL; read-out: Minimum Inhibitory Concentration (MIC) P. aeruginosa SR01332
Procedure, shortened: (§1)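 Broth microdilution per CLSI, inoculum 5×10^5 cfu/mL, in cation-adjusted Iso-Sensitest broth supplemented with human Apo-transferrin. MIC reported in μg/mL.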

[3] = tested on: K. pneumoniae ATCC700603; experiment: MIC, CLSI broth microdilution, Test Example 2; conditions: Klebsiella pneumoniae, ATCC700603; SHV18 ESBL producing strain; cation-adjusted Iso-Sensitest broth containing human Apo-transferrin; 5×10^5 cfu/mL; read-out: Minimum Inhibitory Concentration (MIC) K. pneumoniae ATCC 700603
Procedure, shortened: as §1

[4] = tested on: P. aeruginosa SR01335; experiment: MIC, CLSI broth microdilution, Test Example 2; conditions: Pseudomonas aeruginosa, SR01335; VIM-1 like MBL producing strain (carbapenem resistance strain); cation-adjusted Iso-Sensitest broth containing human Apo-transferrin; 5×10^5 cfu/mL; read-out: Minimum Inhibitory Concentration (MIC) P. aeruginosa SR01335
Procedure, shortened: as §1

[5] = tested on: E. coli SR01337; experiment: MIC, CLSI broth microdilution, Test Example 2; conditions: Escherichia coli, SR01337; TEM-1 ESBL producing strain; cation-adjusted Iso-Sensitest broth containing human Apo-transferrin; 5×10^5 cfu/mL; read-out: Minimum Inhibitory Concentration (MIC) E. coli SR01337
Procedure, shortened: as §1

[6] = tested on: E. cloacae NCTC13464; experiment: MIC, CLSI broth microdilution, Test Example 2; conditions: Enterobacter cloacae, NCTC13464; CTX-M group 9 ESBL producing strain; cation-adjusted Iso-Sensitest broth containing human Apo-transferrin; 5×10^5 cfu/mL; read-out: Minimum Inhibitory Concentration (MIC) E. cloacae NCTC 13464
Procedure, shortened: as §1

[7] = tested on: E. coli ATCCBAA-200; experiment: MIC, CLSI broth microdilution, Test Example 2; conditions: Escherichia coli, ATCCBAA200; SHV-4 ESBL producing strain; cation-adjusted Iso-Sensitest broth containing human Apo-transferrin; 5×10^5 cfu/mL; read-out: Minimum Inhibitory Concentration (MIC) E. coli ATCC BAA-200
Procedure, shortened: as §1

[8] = tested on: E. coli ATCCBAA-196; experiment: MIC, CLSI broth microdilution, Test Example 2; conditions: Escherichia coli, ATCCBAA196; TEM-10 ESBL producing strain; cation-adjusted Iso-Sensitest broth containing human Apo-transferrin; 5×10^5 cfu/mL; read-out: Minimum Inhibitory Concentration (MIC) E. coli ATCC BAA-196
Procedure, shortened: as §1

[9] = tested on: A. baumannii SR01331; experiment: MIC, CLSI broth microdilution, Test Example 2; conditions: Acinetobacter baumannii, SR01331; PER-1, OXA-23.51 ESBL- & OXA-type carbapenemase producing strain; cation-adjusted Iso-Sensitest broth containing human Apo-transferrin; 5×10^5 cfu/mL; read-out: Minimum Inhibitory Concentration (MIC) A. baumannii SR01331
Procedure, shortened: as §1

[10] = tested on: A. baumannii SR27323; experiment: MIC, CLSI broth microdilution, Test Example 1; conditions: OXA-23, OXA-58 carbapenemase producing strain, cation-adjusted Mueller Hinton broth containing human apo-transferrin, 5×10^5 cfu/mL; for MIC: Acinetobacter baumannii, SR27323, read-out: Minimum Inhibitory Concentration (MIC) A. baumannii SR27323
Procedure, shortened: (§2)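 Inoculum 5×10^5 cfu/mL in cation-adjusted Mueller Hinton broth containing human apo-transferrin, following CLSI procedure. MIC reported in μg/mL.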

[11] = tested on: E. coli ATCCBAA-199; experiment: MIC, CLSI broth microdilution, Test Example 1; conditions: SHV-3 ESBL producing strain, cation-adjusted Mueller Hinton broth containing human apo-transferrin, 5×10^5 cfu/mL; for MIC: Escherichia coli, ATCCBAA199, read-out: Minimum Inhibitory Concentration (MIC) E. coli ATCC BAA-199
Procedure, shortened: as §2

[12] = tested on: E. coli ATCCBAA-200; experiment: MIC, CLSI broth microdilution, Test Example 1; conditions: SHV-4 ESBL producing strain, cation-adjusted Mueller Hinton broth containing human apo-transferrin, 5×10^5 cfu/mL; for MIC: Escherichia coli, ATCCBAA200, read-out: Minimum Inhibitory Concentration (MIC) E. coli ATCC BAA-200
Procedure, shortened: as §2

[13] = tested on: K. pneumoniae ATCCBAA-1705; experiment: MIC, CLSI broth microdilution, Test Example 1; conditions: KPC-2 carbapenemase producing strain, cation-adjusted Mueller Hinton broth containing human apo-transferrin, 5×10^5 cfu/mL; for MIC: Klebsiella pneumoniae, ATCCBAA1705, read-out: Minimum Inhibitory Concentration (MIC) K. pneumoniae ATCCBAA-1705
Procedure, shortened: as §2

[14] = tested on: P. aeruginosa SR27060; experiment: MIC, CLSI broth microdilution, Test Example 1; conditions: IMP-1 MBL producing strain (carbapenem resistance strain), cation-adjusted Mueller Hinton broth containing human apo-transferrin, 5×10^5 cfu/mL; for MIC: Pseudomonas aeruginosa, SR27060, read-out: Minimum Inhibitory Concentration (MIC) P. aeruginosa SR27060
Procedure, shortened: as §2

[15] = tested on: P. aeruginosa SR24837; experiment: MIC, CLSI broth microdilution, Test Example 1; conditions: PER-1 ESBL producing strain, cation-adjusted Mueller Hinton broth containing human apo-transferrin, 5×10^5 cfu/mL; for MIC: Pseudomonas aeruginosa, SR24837, read-out: Minimum Inhibitory Concentration (MIC) P. aeruginosa SR24837
Procedure, shortened: as §2

Structure (SMILES): CC(C)(O/N=C(\C(=O)N[C@@H]1C(=O)N2C(c3nnn[n-]3)=C(C[N+]3(C)[C@@H]4CC[C@H]3C[C@@H](NC(=O)c3ccc(O)c(O)c3Cl)C4)CS[C@H]12)c1nc(N)sc1Cl)C(=O)[O-].[Na+] (stereo partly drawn) [Compound I-86]
MIC [1]: 0.063 µg/mL
MIC [2]: 8 µg/mL
MIC [3]: 0.25 µg/mL
MIC [4]: 4 µg/mL
MIC [5]: ≤ 0.031 µg/mL
MIC [6]: 0.5 µg/mL
MIC [7]: 1 µg/mL
MIC [8]: 0.125 µg/mL
MIC [9]: 0.5 µg/mL
MIC [10]: 2 µg/mL
MIC [11]: 0.5 µg/mL
MIC [12]: 0.5 µg/mL
MIC [13]: 0.063 µg/mL
MIC [14]: 0.25 µg/mL
MIC [15]: ≤ 0.031 µg/mL

MIC [1]: 0.063 µg/mL
MIC [10]: 0.5 µg/mL
MIC [11]: 0.063 µg/mL
MIC [12]: 0.125 µg/mL
MIC [13]: 0.063 µg/mL
MIC [14]: 0.5 µg/mL
MIC [15]: ≤ 0.031 µg/mL
Structure (SMILES): CC(C)(O/N=C(\C(=O)N[C@@H]1C(=O)N2C(c3nnn[n-]3)=C(C[N+]3(CCNC(=O)c4ccc(O)c(O)c4Cl)CCCC3)CS[C@H]12)c1nc(N)sc1Cl)C(=O)[O-].[Na+] [Compound I-88]

Structure (SMILES): Nc1nc(C(=NOC(CC(=O)[O-])C(=O)[O-])C(=O)NC2C(=O)N3C(c4nnn[n-]4)=C(C[N+]4(CCNC(=O)c5ccc(O)c(O)c5Cl)CCCC4)CSC23)c(Cl)s1.[Na+].[Na+] (stereo not drawn) [Compound I-91]
Minimum Inhibitory Concentration (MIC) P. aeruginosa SR24 [1]: 0.063 µg/mL
Minimum Inhibitory Concentration (MIC) A. baumannii SR27323 [10]: 0.5 µg/mL
Minimum Inhibitory Concentration (MIC) E. coli ATCC BAA-199 [11]: 0.125 µg/mL
Minimum Inhibitory Concentration (MIC) E. coli ATCC BAA-200 [12]: 0.25 µg/mL
Minimum Inhibitory Concentration (MIC) K. pneumoniae ATCCBAA-1705 [13]: ≦0.031 μg/ml
Minimum Inhibitory Concentration (MIC) P. aeruginosa SR27060 [14]: 0.125 µg/mL
Minimum Inhibitory Concentration (MIC) P. aeruginosa SR24837 [15]: 0.063 µg/mL

Structure (SMILES): C[N+](C)(CCNC(=O)c1ccc(O)c(O)c1Cl)CC1=C(c2nnn[n-]2)N2C(=O)C(NC(=O)C(=NOC(CC(=O)[O-])C(=O)[O-])c3csc(N)n3)C2SC1.[Na+].[Na+] (stereo not drawn) [Compound I-92]
Minimum Inhibitory Concentration (MIC) P. aeruginosa SR24 [1]: 0.25 µg/mL
Minimum Inhibitory Concentration (MIC) A. baumannii SR27323 [10]: 0.5 µg/mL
Minimum Inhibitory Concentration (MIC) E. coli ATCC BAA-199 [11]: 0.063 µg/mL
Minimum Inhibitory Concentration (MIC) E. coli ATCC BAA-200 [12]: 0.125 µg/mL
Minimum Inhibitory Concentration (MIC) K. pneumoniae ATCCBAA-1705 [13]: ≦0.031 μg/ml
Minimum Inhibitory Concentration (MIC) P. aeruginosa SR27060 [14]: 2 µg/mL
Minimum Inhibitory Concentration (MIC) P. aeruginosa SR24837 [15]: 0.25 µg/mL
